Tests used:
human GLP-1R receptor = molecular target: T1, human GLP-1R receptor (Homo sapiens, UniProt P43220, L260F); test: CHOK1 GLP-1R cAMP assay (HTRF); format: cell-based; settings: CHO-K1 cells stably expressing human GLP-1R
T1 construct: expressed in transfected cells; host or cells: CHO-K1 (ATCC CCL-61)
Method: A cell line stably expressing the human GLP-1R receptor (NM_002062.5, including the naturally-occurring variant Leu260Phe) in a CHO-K1 (ATCC® CCL-61™) was used for assay.
GLP-1 receptor mediated agonist activity was determined in a cell-based assay measuring cyclic adenosine monophosphate (cAMP) levels in cells using Homogeneous Time-Resolved Fluorescence (HTRF) cAMP detection kit (CisBio catalog #62AM4PEC, cAMP Gs Dynamic range kit). The cAMP detection method is based on a competitive immunoassay, in which cAMP produced by the cells and cAMP labeled with the dye d2 compete for binding to a Europium-Cryptate-labeled anti-cAMP antibody. The specific HTRF signal is inversely proportional to the concentration of cAMP.
Compounds were added to individual well in 384 well-assay plates (Greiner #784076) using an Echo (LabCyte) dispenser from 10 mM stocks. Varying concentration of compounds were added to wells, and DMSO was used to normalize each well to a volume of 100 nL. A dose response curve of GLP-1(7-36)NH2 (Bachem H-6795) was included in each run. 5 μL of cAMP concentration response standards are applied in specified wells in the assay plates. Cryo-preserved cells are thawed and resuspended in assay buffer pre-heated to 37° C. (20 mM 2-[4-(2-hydroxyethyl)piperazin-1-yl]ethanesulfonic acid (HEPES) pH 7.4, lx Hank's Balanced Salt Solution (HBSS, Life Technologies #14065) supplemented with 0.1% (w/v) bovine serum albumin (Sigma, A-7030)). Cells were centrifuged at 250*g for 5 min at rt, and resuspended in room tempered assay buffer to a final density of 0.16*10^6 cell/mL, to deliver 800 cells/well. 5 μL of assay buffer with 1 mM 3-isobutyl-1-methylxanthin (IBMX; Sigma cat I-7018) was dispensed per well in assay plates using a multidrop combi (Thermo Scientific) subsequently 5 μL of cell suspension was distributed to relevant wells in the assay using a multidrop dispenser. Assay plates were incubated 20 min at rt.
Detection reagents, Europium-Cryptate-labeled anti-cAMP antibody and cAMP labeled with the dye d2, are diluted in lysis buffer, provided by the manufacturer. 5 μL of each detection reagent is supplemented to each assay well using a multidrop dispenser. Assay plates are incubated in the dark for at least one h. The HTRF signal is measured using the HTRF module (excitation: 337 nm, emission A: 665 nm and emission B: 620 nm) in Pherastar FSX (BMG Labtech).
Raw data were converted to pM cAMP using the cAMP standard curve included in each run. Converted data were further analyzed in Genedata Screener (Genedata) and EC50 determinations were made from agonist dose-response curves analyzed with a curve fitting program using a 4-parameter logistic dose response equation (Equation y=A+((B−A)/1+((C/x)^D))) where A is no stimulation, B is full stimulation, C is the EC50 and D is the Hill slope). The percent effect was determined relative to a saturating concentration of a full GLP-1R agonist (GLP-1(7-36)NH2 has 100% effect in this assay setup).

GLP-1R = molecular target: T2, GLP-1R (Homo sapiens, UniProt P43220); test: EndoC cAMP accumulation assay (HTRF, EndoC-βH1 cells); format: cell-based; settings: EndoC-βH1 human pancreatic β cell line
T2 construct: host or cells: EndoC-βH1
Excerpt: EndoC cAMP Accumulation Assay
A HTRF cAMP assay (cAMP Gs dynamic kit; CisoBio Cat #62AM4PEJ) was used to identify agonists of GLP-1R in a pancreatic insulinoma cell line (EndoC-PH1). […] EndoC-βH1 cells have detectable GLP-1R messenger ribonucleic acid (mRNA) as detected by quantitative polymerase chain reaction (qPCR). […] The EndoC-βH1 cell line is a valid model of human beta cells and applicable for screenings to identify novel drug target candidates (Mol. Metab., 2018, 8, 144-157). CisBio HTRF cAMP kits are based on a competitive immunoassay using cryptate-labelled anti-cAMP antibody and d2-labeled cAMP. The detection kit is intended for the direct quantitative determination of cAMP. The specific signal (i.e. energy transfer) is inversely proportional to the concentration of cAMP in the standard or sample. Test compounds (10 mM in DMSO) were diluted into assay buffer (HBSS (Sigma #H8264) supplemented with 25 mM HEPES (Gibco #15630, pH 7.4), 0.1% BSA (Sigma #A3059) and 0.5 mM IBMX (Sigma #I7018) included fresh on the day of the assay) into 96 well U-bottom plates (Greiner #650201). Diluted compounds were transferred to ECHO source polypropelene plates (Labcyte #P-05525) and dose response curves were dispensed acoustically using ECHO 550 into black shallow-well u-bottom 384-well HTRF Assay Plates (Corning 4514).
Cryovials of EndoC-H1 (supplied at 1×10e^7 cells/vial) were used directly for screening. The cryovials and were removed from N2(l) and thawed rapidly in a 37° C. water bath. The cells were resuspended in assay buffer and centrifuged at 300 g for 5 min. Cells were resuspended in assay buffer at the appropriate concentration, typically at 12e5 cells per mL (3000 cells per well, dependent on cell batch) and 2.5 μL diluted cells were added to all wells of destination plate by Multidrop combi reagent dispenser (Thermofisher). The plates were incubated at rt for 30 min. The assay was stopped by adding 2.5 μL anti-cAMP cryptate solution to all wells and 2.5 μL cAMP-d2 solution (both diluted 1:20 in lysis buffer) to columns 1-22 by Combi drop. A volume of 2.5 μL cAMP-d2 solution was added to wells E23 to P24 and 2.5 μL lysis buffer added to wells A23 to D24 by multichannel pipette. The plates were incubated at rt for 1 h and read on an Envision plate reader using excitation wavelength of 320 nm and emission of 590 nm and 660 nm.
Raw data from Envision is converted to % DeltaF according to the manufacturer's instructions. Dose response curves are analysed via 4-Parameter Logistical Analysis and assay plate Z′ values obtained. Samples are graphed as percentage (%) activation plots compared to GIP (1-42, Bachem H-5645) with assay window defined by negative control as basal cell cAMP levels and positive control are defined by maximum GIP (82.5 nM) signal. GLP-1 (7-36 amide, Bachem H-6795) dose response curve was included on all plates.

T2 sequence (P43220 24-463): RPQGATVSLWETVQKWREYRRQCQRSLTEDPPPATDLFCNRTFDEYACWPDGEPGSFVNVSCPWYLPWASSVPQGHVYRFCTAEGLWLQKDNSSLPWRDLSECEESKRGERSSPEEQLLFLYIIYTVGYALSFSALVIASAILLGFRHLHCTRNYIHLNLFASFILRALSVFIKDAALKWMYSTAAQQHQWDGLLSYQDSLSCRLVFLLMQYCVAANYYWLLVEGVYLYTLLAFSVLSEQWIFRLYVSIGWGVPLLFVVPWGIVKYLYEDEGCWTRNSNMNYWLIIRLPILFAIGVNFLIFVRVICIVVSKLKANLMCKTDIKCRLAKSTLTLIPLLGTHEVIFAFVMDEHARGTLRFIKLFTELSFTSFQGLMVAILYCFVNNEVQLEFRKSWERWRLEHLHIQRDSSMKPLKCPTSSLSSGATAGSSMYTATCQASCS
T1 sequence (P43220 24-463 L260F): as the sequence (P43220 24-463) above, with L237F counted along it

| SMILES | EC50 (human GLP-1R receptor) | EC50 (GLP-1R) |
| --- | --- | --- |
| COc1cc(C(=O)O)cc2c1nc(CN1CCN(c3cccc(OCc4ccc(Cl)cc4F)n3)[C@H]3CC[C@@H]31)n2C[C@@H]1CCO1 (single isomer, unassigned) [Example 5a, 2-(((1R*,6R*)-5-(6-((4-Chloro-2-fluorobenzyl)oxy)pyridin-2-yl)-2,5-diazabicyclo[4.2.0]octan-2-yl)methyl)-4-methoxy-1-(((S)-oxetan-2-yl)methyl)-1H-benzo[d]imidazole-6-carboxylic acid] | 6.4 nM | 4 nM |
| O=C(O)c1cc(F)c2nc(CN3CCN(c4cccc(OCc5ccc(Cl)cc5F)n4)[C@@H]4COC[C@@H]43)n(C[C@@H]3CCO3)c2c1 (single isomer, unassigned) [Example 19b, 2-(((4aR*,7aS*)-4-(6-((4-Chloro-2-fluorobenzyl)oxy)pyridin-2-yl)hexahydrofuro[3,4-b]pyrazin-1(2H)-yl)methyl)-4-fluoro-1-(((S)-oxetan-2-yl)methyl)-1H-benzo[d]imidazole-6-carboxylic acid] | 120 nM | 290 nM |
| N#Cc1ccc(COc2cccc(N3CCN(Cc4nc5ccc(C(=O)O)c(Cl)c5n4C[C@@H]4CCO4)[C@H]4CC[C@H]43)n2)c(F)c1 (single isomer, unassigned) [Example 8c] | 140 nM | 620 nM |
| Cc1nccn1CCn1c(CN2CCN(c3cccc(OCc4ccc(Cl)cc4F)n3)[C@@H]3COC[C@@H]32)nc2c(F)cc(C(=O)O)cc21 (single isomer, unassigned) [Example 23] | 170 nM | 110 nM |
| Cc1cc(Cn2c(CN3CCN(c4cccc(OCc5ccc(C#N)cc5F)n4)[C@@H]4CC[C@@H]43)nc3ccc(C(=O)O)cc32)no1 (racemic) [Example 13, rac-2-(((1R,6S)-5-(6-((4-Cyano-2-fluorobenzyl)oxy)pyridin-2-yl)-2,5-diazabicyclo[4.2.0]octan-2-yl)methyl)-1-((5-methylisoxazol-3-yl)methyl)-1H-benzo[d]imidazole-6-carboxylic acid] | 110 nM | 100 nM |
| O=C(O)c1cc(Cl)c2nc(CN3CCN(c4cccc(OCc5ccc(Cl)cc5F)n4)[C@@H]4COC[C@@H]43)n(C[C@@H]3CCO3)c2c1 (single isomer, unassigned) [Example 22a, 4-Chloro-2-(((4aR*,7aS*)-4-(6-((4-chloro-2-fluorobenzyl)oxy)pyridin-2-yl)hexahydrofuro[3,4-b]pyrazin-1(2H)-yl)methyl)-1-(((S)-oxetan-2-yl)methyl)-1H-benzo[d]imidazole-6-carboxylic acid] | 1 nM | 6.6 nM |
| CCn1cncc1Cn1c(CN2CCN(c3cccc(OCc4ccc(Cl)cc4F)n3)[C@H]3CC[C@@H]32)nc2c(OC)cc(C(=O)O)cc21 (single isomer, unassigned) [Example 12b] | 8.9 nM | 16 nM |
| O=C(O)c1cc(Cl)c2nc(CN3CCN(c4cccc(OCc5ccc(Cl)cc5F)n4)[C@@H]4COC[C@@H]43)n(C[C@@H]3CCO3)c2c1 (single isomer, unassigned) [Example 22b, 4-Chloro-2-(((4aR*,7aS*)-4-(6-((4-chloro-2-fluorobenzyl)oxy)pyridin-2-yl)hexahydrofuro[3,4-b]pyrazin-1(2H)-yl)methyl)-1-(((S)-oxetan-2-yl)methyl)-1H-benzo[d]imidazole-6-carboxylic acid] | 150 nM | 270 nM |
| O=C(O)c1ccc2nc(CN3CCN(c4cccc(OCc5ccc(Cl)cc5F)n4)[C@@H]4COC[C@@H]43)n(Cc3cccnc3)c2c1 (single isomer, unassigned) [Example 21] | 74 nM | 71 nM |

The remaining molecules from weak to strong by EC50 (human GLP-1R receptor), led by results:

| EC50 (human GLP-1R receptor) | EC50 (GLP-1R) | SMILES |
| --- | --- | --- |
| 180 nM | 69 nM | N#Cc1ccc(COc2cccc(N3CCN(Cc4nc5cc(F)c(C(=O)O)cc5n4C[C@@H]4CCO4)[C@H]4CC[C@@H]43)n2)c(F)c1 (single isomer, unassigned) [Example 9a] |
| 95 nM | 57 nM | N#Cc1ccc(COc2cccc(N3CCN(Cc4nc5c(Cl)cc(C(=O)O)cc5n4C[C@@H]4CCO4)[C@H]4CC[C@H]43)n2)c(F)c1 (single isomer, unassigned) [Example 6b] |
| 57 nM | 15 nM | O=C(O)c1cc(F)c2nc(CN3CCN(c4cccc(OCc5ccc(Cl)cc5F)n4)[C@@H]4COC[C@@H]43)n(C[C@H]3CCOC3)c2c1 (single isomer, unassigned) [Example 18b] |
| 35 nM | 37 nM | O=C(O)c1ccc2nc(CN3CCN(c4cccc(OCc5ccc(Cl)cc5F)n4)[C@@H]4COC[C@@H]43)n(Cc3cocn3)c2c1 (single isomer, unassigned) [Example 20] |
| 28 nM | 41 nM | N#Cc1ccc(COc2cccc(N3CCN(Cc4nc5ccc(C(=O)O)c(Cl)c5n4C[C@@H]4CCO4)[C@H]4CC[C@H]43)n2)c(F)c1 (single isomer, unassigned) [Example 8b] |
| 3.3 nM | 14 nM | O=C(O)c1ccc2nc(CN3CCN(c4cccc(OCc5ccc(Cl)cc5F)n4)[C@@H]4COC[C@@H]43)n(C[C@@H]3CCO3)c2c1 (racemic) [Example 15, 2-(((4aRS,7aSR)-4-(6-((4-Chloro-2-fluorobenzyl)oxy)pyridin-2-yl)hexahydrofuro[3,4-b]pyrazin-1(2H)-yl)methyl)-1-(((S)-oxetan-2-yl)methyl)-1H-benzo[d]imidazole-6-carboxylic acid] |

From patent US20250115612A1, “CERTAIN 2,5-DIAZABICYCLO[4.2.0]OCTANES AND OCTAHYDROFURO[3,4-B]PYRAZINES AS GLP-1 RECEPTOR MODULATORS” (ASTRAZENECA AB, priority 2021, published 2025)
